These results are taken from PubChem BioAssay AID1259407 (Chemical Carcinogenesis Research Information System (CCRIS), 2018).

Molecules are shown by their SMILES. Activity calls are given as the source filed them. How the calls were made is not given here.

The data set concerns CCRIS mutagenicity, Ames/micronucleus/aberration tests. Description: CCRIS mutagenicity studies.
The mark [1] stands for this setting: Test System: AMES SALMONELLA TYPHIMURIUM, Strain/Indicator: TA98, Metabolic Activation: NONE, Method: PREINCUBATION
Setting [2] is: Test System: AMES SALMONELLA TYPHIMURIUM, Strain/Indicator: TA100, Metabolic Activation: NONE, Method: PREINCUBATION

For `C=C(C)CCl`, the mutagenic call is, setting by setting: (End Point: IN VITRO CHROMOSOMAL ABERRATIONS, Test System: CHL CELLS, Metabolic Activation: RAT, LIVER, S-9, SODIUM PHENOBARBITAL AND 5,6-BENZOFLAVONE) “active; positive (structural changes)”; (Test System: AMES SALMONELLA TYPHIMURIUM, Strain/Indicator: TA97, Metabolic Activation: HAMSTER, LIVER, S-9, AROCLOR 1254 (10 OR 30%), Method: PREINCUBATION) “inactive; negative”; (Test System: AMES SALMONELLA TYPHIMURIUM, Strain/Indicator: TA97, Metabolic Activation: NONE, Method: PREINCUBATION) “inactive; negative”; (Test System: AMES SALMONELLA TYPHIMURIUM, Strain/Indicator: TA97, Metabolic Activation: RAT, LIVER, S-9, AROCLOR 1254 (10 OR 30%), Method: PREINCUBATION) “inactive; negative”; (Test System: AMES SALMONELLA TYPHIMURIUM, Strain/Indicator: TA98, Metabolic Activation: HAMSTER, LIVER, S-9, AROCLOR 1254 (10 OR 30%), Method: PREINCUBATION) “inactive; negative”; under setting [1], “inactive; negative”. For the same compound, the mutagenic call runs as follows: (Test System: AMES SALMONELLA TYPHIMURIUM, Strain/Indicator: TA98, Metabolic Activation: RAT LIVER S-9, PHENOBARBITAL AND BETA-NAPHTHOFLAVONE, Method: PREINCUBATION) “inactive; negative”; (Test System: AMES SALMONELLA TYPHIMURIUM, Strain/Indicator: TA98, Metabolic Activation: RAT, LIVER, S-9, AROCLOR 1254 (10 OR 30%), Method: PREINCUBATION) “inactive; negative”; (Test System: AMES SALMONELLA TYPHIMURIUM, Strain/Indicator: TA100, Metabolic Activation: HAMSTER, LIVER, S-9, AROCLOR 1254 (10 OR 30%), Method: PREINCUBATION) “inactive; negative”; (Test System: AMES SALMONELLA TYPHIMURIUM, Strain/Indicator: TA100, Metabolic Activation: NONE, Method: LIQUID SUSPENSION) “active; positive”; under setting [2], “inactive; negative”; (Test System: AMES SALMONELLA TYPHIMURIUM, Strain/Indicator: TA100, Metabolic Activation: RAT LIVER S-9, PHENOBARBITAL AND BETA-NAPHTHOFLAVONE, Method: PREINCUBATION) “inactive; negative”. The mutagenic call (Test System: AMES SALMONELLA TYPHIMURIUM, Strain/Indicator: TA100, Metabolic Activation: RAT, LIVER, S-9, AROCLOR 1254 (10 OR 30%), Method: PREINCUBATION) is “inactive; negative”; the mutagenic call (Test System: AMES SALMONELLA TYPHIMURIUM, Strain/Indicator: TA100, Metabolic Activation: RAT, LIVER, S-9, Method: LIQUID SUSPENSION) was “active; positive”; the mutagenic call (Test System: AMES SALMONELLA TYPHIMURIUM, Strain/Indicator: TA102, Metabolic Activation: NONE, Method: PREINCUBATION) is “inactive; negative”; the mutagenic call (Test System: AMES SALMONELLA TYPHIMURIUM, Strain/Indicator: TA102, Metabolic Activation: RAT LIVER S-9, PHENOBARBITAL AND BETA-NAPHTHOFLAVONE, Method: PREINCUBATION) is “inactive; negative”; the mutagenic call (Test System: AMES SALMONELLA TYPHIMURIUM, Strain/Indicator: TA102, Metabolic Activation: RAT, LIVER, S-9, PHENOBARBITAL AND 5,6-BENZOFLAVONE, Method: STANDARD PLATE) is “inactive; negative”; the mutagenic call (Test System: AMES SALMONELLA TYPHIMURIUM, Strain/Indicator: TA104, Metabolic Activation: NONE, Method: PREINCUBATION) was “inactive; negative”. The mutagenic call reads like this: (Test System: AMES SALMONELLA TYPHIMURIUM, Strain/Indicator: TA104, Metabolic Activation: RAT LIVER S-9, PHENOBARBITAL AND BETA-NAPHTHOFLAVONE, Method: PREINCUBATION) “inactive; negative”; (Test System: AMES SALMONELLA TYPHIMURIUM, Strain/Indicator: TA1535, Metabolic Activation: HAMSTER, LIVER, S-9, AROCLOR 1254 (10 OR 30%), Method: PREINCUBATION) “inactive; negative”; (Test System: AMES SALMONELLA TYPHIMURIUM, Strain/Indicator: TA1535, Metabolic Activation: NONE, Method: PREINCUBATION) “inactive; negative”; (Test System: AMES SALMONELLA TYPHIMURIUM, Strain/Indicator: TA1535, Metabolic Activation: RAT LIVER S-9, PHENOBARBITAL AND BETA-NAPHTHOFLAVONE, Method: PREINCUBATION) “inactive; negative”; (Test System: AMES SALMONELLA TYPHIMURIUM, Strain/Indicator: TA1535, Metabolic Activation: RAT, LIVER, S-9, AROCLOR 1254 (10 OR 30%), Method: PREINCUBATION) “inactive; negative”; (Test System: AMES SALMONELLA TYPHIMURIUM, Strain/Indicator: TA1537, Metabolic Activation: HAMSTER, LIVER, S-9, AROCLOR 1254 (10 OR 30%), Method: PREINCUBATION) “inactive; negative”. For the same compound, the mutagenic call is “inactive; negative” (Test System: AMES SALMONELLA TYPHIMURIUM, Strain/Indicator: TA1537, Metabolic Activation: NONE, Method: PREINCUBATION); “inactive; negative” (Test System: AMES SALMONELLA TYPHIMURIUM, Strain/Indicator: TA1537, Metabolic Activation: RAT LIVER S-9, PHENOBARBITAL AND BETA-NAPHTHOFLAVONE, Method: PREINCUBATION); “inactive; negative” (Test System: AMES SALMONELLA TYPHIMURIUM, Strain/Indicator: TA1537, Metabolic Activation: RAT, LIVER, S-9, AROCLOR 1254 (10 OR 30%), Method: PREINCUBATION); “inactive; negative” (Test System: AMES SALMONELLA TYPHIMURIUM, Strain/Indicator: TA2638, Metabolic Activation: RAT, LIVER, S-9, PHENOBARBITAL AND 5,6-BENZOFLAVONE, Method: STANDARD PLATE); “inactive; negative” (Test System: E. COLI, Strain/Indicator: WP2 (PKM101), Metabolic Activation: RAT, LIVER, S-9, PHENOBARBITAL AND 5,6-BENZOFLAVONE, Method: STANDARD PLATE); “inactive; negative” (Test System: E. COLI, Strain/Indicator: WP2 UVRA (PKM101), Metabolic Activation: RAT, LIVER, S-9, PHENOBARBITAL AND 5,6-BENZOFLAVONE, Method: STANDARD PLATE). Further, the mutagenic call (Test System: E.COLI, Strain/Indicator: WP2UVRA/PKM101, Metabolic Activation: NONE, Method: PREINCUBATION) was “inactive; negative”; the mutagenic call (Test System: E.COLI, Strain/Indicator: WP2UVRA/PKM101, Metabolic Activation: RAT LIVER S-9, PHENOBARBITAL AND BETA-NAPHTHOFLAVONE, Method: PREINCUBATION) is “active; positive”; the mutagenic call (Test System: E.COLI, Strain/Indicator: WP2UVRA, Metabolic Activation: NONE, Method: PREINCUBATION) was “inactive; negative”; the mutagenic call (Test System: E.COLI, Strain/Indicator: WP2UVRA, Metabolic Activation: RAT LIVER S-9, PHENOBARBITAL AND BETA-NAPHTHOFLAVONE, Method: PREINCUBATION) is “inactive; negative”.

Regarding `Cc1ccc(C)c([N+](=O)[O-])c1`, the mutagenic call is, setting by setting: under setting [1], “inactive; negative”; (Test System: AMES SALMONELLA TYPHIMURIUM, Strain/Indicator: TA98, Metabolic Activation: RAT, LIVER, S-9, KANECHLOR 500, Method: PREINCUBATION) “inactive; negative”; under setting [2], “inactive; negative”; (Test System: AMES SALMONELLA TYPHIMURIUM, Strain/Indicator: TA100, Metabolic Activation: RAT, LIVER, S-9, KANECHLOR 500, Method: PREINCUBATION) “active; positive”.

Turning to `N/C(=N\O)c1ccc(O)c(O)c1`, the mutagenic call runs as follows: (Test System: AMES SALMONELLA TYPHIMURIUM, Strain/Indicator: TA97, Metabolic Activation: NONE, Method: STANDARD PLATE) “inactive; negative”; (Test System: AMES SALMONELLA TYPHIMURIUM, Strain/Indicator: TA97, Metabolic Activation: RAT, LIVER, S-9, DELOR 103, Method: STANDARD PLATE) “inactive; negative”; (Test System: AMES SALMONELLA TYPHIMURIUM, Strain/Indicator: TA98, Metabolic Activation: NONE, Method: STANDARD PLATE) “inactive; negative”; (Test System: AMES SALMONELLA TYPHIMURIUM, Strain/Indicator: TA98, Metabolic Activation: RAT, LIVER, S-9, DELOR 103, Method: STANDARD PLATE) “active; positive”; (Test System: AMES SALMONELLA TYPHIMURIUM, Strain/Indicator: TA100, Metabolic Activation: NONE, Method: STANDARD PLATE) “inactive; negative”; (Test System: AMES SALMONELLA TYPHIMURIUM, Strain/Indicator: TA100, Metabolic Activation: RAT, LIVER, S-9, DELOR 103, Method: STANDARD PLATE) “inactive; negative”. Besides, the mutagenic call (Test System: AMES SALMONELLA TYPHIMURIUM, Strain/Indicator: TA102, Metabolic Activation: NONE, Method: STANDARD PLATE) is “inactive; negative” and the mutagenic call (Test System: AMES SALMONELLA TYPHIMURIUM, Strain/Indicator: TA102, Metabolic Activation: RAT, LIVER, S-9, DELOR 103, Method: STANDARD PLATE) was “inactive; negative”.

For the compound `CC(=O)/C=C/CCC(=O)/C=C/C(=O)O[C@@H](CCC(=O)/C=C/C(=O)O)CC(C)=O`, under “Test System: CHINESE HAMSTER V-79, Strain/Indicator: V-79 (HPRT)/6-THIOGUANINE, Metabolic Activation: NONE”, the mutagenic call was “active; positive”.
